In patent US8999322B2, “Compositions and methods for modulating hemostasis” (The United States of America National Institutes of Health …, priority 2005, dated 2015):

Tests used:
mIIa = details: read-out: Kd of DAPA for mIIa; cited from earlier work
IIa = details: read-out: Kd of DAPA for IIa; cited from earlier work
IITAT = target: T1, IITAT (Homo sapiens, UniProt P00734, E366T/I364T/V365A); assay: Rescue of IITAT cleavage at Arg-271 by DAPA (areas under mIIa progress curves); assay type: biochemical; details: DAPA 0-300 μM; 5.4 μM IITAT, 0.8 nM prothrombinase; read-out: DAPA concentration for half-maximal effect on rescue of second half-reaction in IITAT cleavage
T1 construct: made in house
Protocol: Reaction mixtures prepared in assay buffer and maintained at 25° C., contained 5.4 μM IIWT, IITAT, or IIQ155,Q284, 20 μM PCPS, 28 nM Va, and indicated concentrations of DAPA. Cleavage was initiated by the addition of 0.8 nM Xa and samples (15 μl), withdrawn at the indicated times, were quenched by mixing with an equal volume of 2 NuPAGE LDS sample buffer (Invitrogen) containing 50 mM EDTA. Quenched samples were treated with 71 mM DTT, heated at 89° C. for 5 min, and subjected to electrophoresis (4.2 μg protein per lane) by using NuPAGE 4-12% gels and Mes running buffer (Invitrogen). Protein bands visualized by staining with Coomassie brilliant blue R-250 were imaged and analyzed by quantitative densitometry by using procedures described in detail in refs. 4 and 15. Analysis of the cleavage of FPR-IIQ320 and NaSCN-treated IIQ320 was performed as described above except that reaction mixtures contained 5.8 μM prothrombin variant, 50 μM PCPS, 60 nM Va, 40 μM DAPA, and 1 nM Xa.
Effects of DAPA were assessed by integrating areas under the progress curves for mIIa formation and its disappearance for the different prothrombin variants (FIG. 5). Normalized areas obtained in the activation of IIWT or IIQ155,Q284 were identical and were independent of DAPA varied between 0 and 300 μM for IIQ155,Q284 or 20 and 300 μM for IIWT. […]

IIaWT = target: T2, IIaWT (Homo sapiens, UniProt P00734); assay: Binding of DAPA to thrombin variants (fluorescence); details: fluorescence studies, data not shown
T2 construct: yielding mIIa as the sole intermediate, followed by cleavage at Arg-271 to produce IIa
Protocol: Front face fluorescence measurements were performed in a plate reader (SpectraMax Gemini, Molecular Devices) by using black polystyrene plates (no. 3650, Corning). Reaction mixtures (100 μl) prepared in assay buffer contained increasing concentrations of DAPA (24 concentrations, 0-100 μM) with no addition, 0.5 μM IIa, or 0.5 μM IIaTAT. […] Subtraction of the intensity measured with DAPA alone yielded the fluorescence change associated with the binding of DAPA to Ha or IIaTAT. Fluorescence data were analyzed as described in ref 7 to infer the equilibrium dissociation constant.

mIIaTAT = target: T3, mIIaTAT (Homo sapiens, UniProt P00734, E366T/I364T/V365A); assay: DAPA binding to zymogen-like mIIaTAT (interpretation of rescue data); details: possible interpretation of rescue findings
T3 construct: made in house; host or cells: IITAT from HEK293 cells, cleaved in the reaction by prothrombinase
Description: Ligands that bind with high affinity to the proteinase are established to enhance the ability of the zymogen to adopt a proteinase-like configuration (13, 20, 23). Our findings are consistent with two possible interpretations. […] Alternatively, DAPA could act by selectively binding and favoring the proteinase in an equilibrium between zymogen-like and proteinase-like forms of mIIaTAT in which the zymogen-like state is highly favored.

In the case of `CCC1CCN(C(=O)C(CCCNC(=N)N)NS(=O)(=O)c2cccc3c(N(C)C)cccc23)CC1` [DAPA, dansyl-L-arginine N-(3-ethyl-1,5-pentanediyl)amide], the Kd (mIIa) is given as about 0.001 µM, the Kd (IIa) is given as about 0.001 µM and the EC50 (IITAT) is given as about 20 µM. For the same molecule, the “equilibrium dissociation constant of DAPA for IIaWT” value (IIaWT) was “nanomolar” and the Kd (mIIaTAT) was 30 µM.
